Read-outs that look alike come from different tables or passages of the source.
How the values were obtained:
Assay type in all cases: cell-based
[1] = test system: Canine kidney renal tubule epithelial cells (MDCK cells); assay: MDCK cells-2: Cyst formation on Matrigel, size and number of Cysts (Experimental Example 8); conditions: for proportion of Cysts of 70 μm or more: 6 days, control 35%; for Cyst morphology, confocal fluorescence microscope (in words): FIG. 1
Description: Canine kidney renal tubule epithelial cells (MDCK cells, manufactured by DS PHARMA BIO MEDICAL) were precultured in EMEM medium containing 10% FBS and 1% NEAA. Cold Matrigel (registered trade mark) Matrix GFR (manufactured by Corning) was spread on a 24-well plate by 50 μL and fixed by incubating at 37° C. for 15 min. The aforementioned MDCK cells were suspended in a medium at 10000 cells/mL, cold Matrigel (registered trade mark) Matrix GFR was added at 20 μL/mL and seeded at 1 mL/well. […] As a control (compound no-addition), DMSO was added at a final concentration of 0.1%. Six days later, the size and number of Cysts formed were measured using Cell^3iMager (manufactured by Screen Inc.). The proportion of the Cysts of 70 μm or more in the entire Cysts is shown in the fourteenth table.
The cells were washed with PBS (1 mL/well), 4% paraformaldehyde/PBS (manufactured by Wako Pure Chemical Industries, Ltd.) was added (1 mL/well) and fixed at room temperature for 20 min. Thereafter, the supernatant was removed, IF buffer (0.2% Triton X-100 (manufactured by Sigma-Aldrich), 0.05% Tween 20 (manufactured by Sigma-Aldrich)-containing PBS) were added at 1 mL/well, stood for 30 min and removed. Penetration buffer (0.5% Triton X-100 (manufactured by Sigma-Aldrich)/PBS) was added at 1 mL/well and incubated at room temperature for 30 min. The supernatant was removed, washed 3 times every 5 min with IF buffer, blocking buffer (1% BSA (manufactured by Sigma-Aldrich)/IF buffer) was added at 0.5 mL/well and incubated for 30 min. The supernatant was removed, an anti-P catenin antibody (manufactured by BD Bioscience) diluted 100-fold with blocking buffer was added at 250 μL/well, and the cells were incubated at room temperature for 60 min. The cells were washed 3 times every 5 min with IF buffer, the secondary antibody (Alexa Fluor 555, manufactured by Thermo Fisher Scientific) and Phalloidin (Alexa Fluor 488, manufactured by Thermo Fisher Scientific), each diluted 250-fold with blocking buffer, were added at 250 μL/well, and the cells were incubated at room temperature in shading for 60 min.

[2] = test system: human ovarian cancer cell line SKOV3; assay: Action on SKOV3 cell-1: 3D (deacylated gellan gum) and 2D culture, HB-EGF medium, ATP assay (Experimental Example 2); conditions: for relative value of RLU (number of viable cells) / viability at 0.5 µM / viability at 1 µM / viability at 5 µM / viability at 10 µM / viability at 20 µM: 4 days, compound non-addition = 100%; for viability at 0.5 µM / viability at 1 µM / viability at 5 µM / viability at 10 µM / viability at 20 µM: Homo sapiens, SK-OV-3, 96 h, read-out: relative value of RLU (number of viable cells)
Description: According to the method of patent document 1 (WO 2014/017513), a composition of McCoy's 5a medium (manufactured by Sigma-Aldrich) containing 0.015% (w/v) deacylated gellan gum (KELCOGEL CG-LA, manufactured by Sansho Co., Ltd.) and 15% (v/v) FBS, 100 ng/mL human HB-EGF (manufactured by PEPROTECH) was prepared by a homomixer. As a control, a non-addition medium composition not containing deacylated gellan gum was prepared. Then, human ovarian cancer cell line SKOV3 (manufactured by DS PHARMA BIO MEDICAL) was suspended in the above-mentioned medium composition added with deacylated gellan gum, and dispensed into the wells of a 384 well flat bottom Ultr-low Attachment surface microplate (manufactured by Corning Incorporated, #3827) at 1000 cells/40 μL/well (three-dimensional culture (3D)). In a single layer culture (2D), human ovarian cancer cell line SKOV3 was suspended in the above-mentioned medium is composition not containing deacylated gellan gum, and dispensed into the wells of a 384 well flat bottom microplate (manufactured by Corning Incorporated, #3712) at 400 cells/40 L per well. Each plate was cultured in a standing state in a CO2 incubator (37° C., 5% CO2). On day 1 of culture, the compound to be used in the present invention dissolved in dimethyl sulfoxide (DMSO) was added by 4.4 μL each at a final concentration of 0, 0.5, 1, 5, 10, 20 μM, and continuously cultured for 4 days. An ATP reagent (44.4 μL) (CellTiter-Glo (registered trade mark) Luminescent Cell Viability Assay, manufactured by Promega) was added to and suspended in the culture medium on day 5, and the suspension was stood for 15 min at room temperature. The luminescence intensity (RLU value) was measured by FlexStation3 (manufactured by Molecular Devices) and the luminescence value of the medium alone was subtracted to measure the number of viable cells.

[3] = test system: Human mesenchymal stem cells (hMSC); assay: Human mesenchymal stem cells-1: viable cell count, 2D and 3D culture (Experimental Example 9); conditions: for cell proliferation rate (relative value): hMSC, 10 μM, 7 days, compound non-addition = 1; for number of hMSC cells (in words): two-dimensional and three-dimensional cell culture conditions
Description: (§1) Human mesenchymal stem cells (hMSC, manufactured by TOYOBO) were precultured by a single layer culture method (2D) using an MF-medium mesenchymal stem cell proliferation medium (manufactured by TOYOBO). In three-dimensional culture method (3D), hMSC were suspended in a medium composition added with deacylated gellan gum, and seeded in a […] flat bottom Ultr-low Attachment surface plate (manufactured by Corning Incorporated, #3471) at 1.2×10^5 cells/2 mL/well. In 2D, hMSC were suspended in a deacylated gellan gum-free medium composition, and seeded in a 6-well flat bottom plate (manufactured by Corning Incorporated, #3516) at 4.0×10^4 cells/2 mL/well. […] As a control, DMSO was added at a final concentration of 0.1%. Seven days later, in the three-dimensional culture method, cells were collected from the wells, washed with PBS, and the supernatant was removed. Then, a trypsin 0.25 w/v % trypsin-1 mmol/L EDTA (ethylenediaminetetraacetic acid) solution (manufactured by Wako Pure Chemical Industries, Ltd.) was added and the cells were incubated at 37° C. for 2-5 min to disperse the spheres into single cells. The medium was added, and the mixture was centrifuged to remove the supernatant. Thereafter, the cells were resuspended in the same medium, a part was suspended in Trypan Blue (manufactured by Wako Pure Chemical Industries, Ltd.), and the number of viable cells was counted using automatic cell counter TC20 (manufactured by BIO-RAD).
In a single layer culture method, the cells were washed with PBS, 0.25 w/v % trypsin-1 mmol/L EDTA solution was added, and the cells were detached by incubating at 37° C. for 2-5 min. The medium was added, the mixture was centrifuged and the supernatant was removed. Thereafter, the cells were resuspended in the same medium, a part was suspended in Trypan Blue (manufactured by Wako Pure Chemical Industries, Ltd.) and the number of viable cells was counted using TC-20 (manufactured by BIO-RAD).
(§2) CD34 antibody (APC, manufactured by BD Bioscience), CD73 (BV421, manufactured by BD Bioscience), CD29 (BB515, manufactured by BD Bioscience) were added to the above-mentioned cell suspension, and the mixture was incubated on ice for 30 min. The cells were washed twice with 2% SM buffer (2% FBS/PBS), SM containing 1 μg/mL of Propidium Iodide (PI) was added, and the mixture was analyzed with FACSAria (manufactured by Becton Dickinson). The cell number with compound non-addition (control) was taken as 1, and relative value with addition of each compound is calculated in the fifteenth table. The positive rates or negative rates of CD34, CD73, and CD29 of cells after three-dimensional culture (3D) under the conditions with no addition or addition of the compound are shown in the sixteenth table.

CD34, CD73, CD29 of hMSC = assay: Human mesenchymal stem cells-1: cell surface markers by FACS after 3D culture (Experimental Example 9); conditions: for CD34+ (negative rate) / CD29+ (positive rate) / CD73+ (positive rate): hMSC after 3D culture, 10 μM, 7 days; for CD34+ (negative rate): no addition 0.9%; for CD29+ (positive rate): no addition 94.6%; for CD73+ (positive rate): no addition 99.9%; for undifferentiated state of hMSCs (in words): surface markers CD34, CD73, CD29 did not change
Description: as §1, §2

[4] = 2D single layer culture, 0.5 μM
[5] = 3D culture (deacylated gellan gum), 0.5 μM
[6] = 3D culture (deacylated gellan gum), 1 μM
[7] = 3D culture (deacylated gellan gum), 5 μM
[8] = 3D culture (deacylated gellan gum), 10 μM
[9] = 3D culture (deacylated gellan gum), 20 μM
[10] = single layer culture (2D) of SKOV3 cells
[11] = three-dimensional culture (3D) of SKOV3 cells

Structure (SMILES)	proportion of Cysts of 70 μm or more in the entire Cysts (in words) [1]	proportion of Cysts of 70 μm or more ([1]; 5 μM)	proportion of Cysts of 70 μm or more ([1]; 10 μM)	Cyst morphology, confocal fluorescence microscope (in words) [1]	cell proliferation promoting effect (in words) [2, 10]	cell proliferation promoting effect (in words) [2, 11]	cell proliferation rate (relative value) ([3]; 2D)	cell proliferation rate (relative value) ([3]; 3D (deacylated gellan gum))	number of hMSC cells (in words) [3]	CD34+ (negative rate) (CD34, CD73, CD29 of hMSC)	CD29+ (positive rate) (CD34, CD73, CD29 of hMSC)	CD73+ (positive rate) (CD34, CD73, CD29 of hMSC)	undifferentiated state of hMSCs (in words) (CD34, CD73, CD29 of hMSC)	also measured
CC/C(=N\NC(=O)C(C)Nc1ccccc1)c1ccc(O)c(C)c1O (stereo not shown) [k-1:B-1]	increased	72%	68%	a normal Cyst was formed										
CCC(=NNC(=O)C(CC)Nc1ccccc1)c1ccc(O)c(C)c1O (stereo not shown) [k-1:H-7]					a favorable cell proliferation promoting effect was not observed	exhibited cell proliferation promoting effect at a wide concentration range	1.9	4	showed an effect of increasing the number of hMSC cells	3%	94.6%	100%	promote cell proliferation while maintaining undifferentiated state of hMSCs	relative value of RLU (number of viable cells) [2, 4]: 110%; relative value of RLU (number of viable cells) ([2]; 2D single layer culture, 1 μM): 105%; relative value of RLU (number of viable cells) ([2]; 2D single layer culture, 5 μM): 91%; relative value of RLU (number of viable cells) ([2]; 2D single layer culture, 10 μM): 69%; relative value of RLU (number of viable cells) ([2]; 2D single layer culture, 20 μM): 47%; relative value of RLU (number of viable cells) [2, 5]: 104%; relative value of RLU (number of viable cells) [2, 6]: 137%; relative value of RLU (number of viable cells) [2, 7]: 176%; relative value of RLU (number of viable cells) [2, 8]: 150%; relative value of RLU (number of viable cells) [2, 9]: 110%
CC/C(=N\NC(=O)Nc1ccccc1)c1ccc(O)c(C)c1O [k-1:H-10]					a favorable cell proliferation promoting effect was not observed	exhibited cell proliferation promoting effect at a wide concentration range	1.3	1.7	showed an effect of increasing the number of hMSC cells	0.7%	87.6%	99.1%	promote cell proliferation while maintaining undifferentiated state of hMSCs	viability at 0.5 µM [2, 4]: 111%; viability at 1 µM ([2]; 2D single layer culture, 1 μM): 108%; viability at 5 µM ([2]; 2D single layer culture, 5 μM): 102%; viability at 10 µM ([2]; 2D single layer culture, 10 μM): 99%; viability at 20 µM ([2]; 2D single layer culture, 20 μM): 66%; viability at 0.5 µM [2, 5]: 120%; viability at 1 µM [2, 6]: 120%; viability at 5 µM [2, 7]: 128%; viability at 10 µM [2, 8]: 138%; viability at 20 µM [2, 9]: 129%
CC/C(=N\NC(=O)NCc1ccccc1)c1ccc(O)c(C)c1O [k-1:I-1]	increased	39%	43%	a normal Cyst was formed										
